Data reported in patent publication US20250228239A1, “MOLECULES HAVING PESTICIDAL UTILITY, AND INTERMEDIATES, COMPOSITIONS, AND PROCESSES, RELATED THERETO” (priority 2024, published 2025).

Experiments:
[1] = system: Beet Armyworm (Spodoptera exigua, LAPHEG); experiment: Bioassays on Beet Armyworm (BAW), 128-well diet tray assay; assay type: in vivo; details: Spodoptera exigua; Beet Armyworm; rating class; read-out: BAW
Method in brief: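 Larvae at second instar are exposed on dried, compound-treated diet (50 μg/cm^2, delivered in 90:10 acetone-water) in eight replicate wells. After five to seven days at 25° C., 14:10 light-dark, percent mortality in each well is scored and the eight wells averaged.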

[2] = system: Cabbage Looper (Trichoplusia ni, TRIPNI); experiment: Bioassays on Cabbage Looper (CL), 128-well diet tray assay; assay type: in vivo; details: Trichoplusia ni; Cabbage Looper; rating class; read-out: CL
Method in brief: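 Percent mortality, averaged across eight replicate wells, after second-instar larvae (1–5 per well) fed for five to seven days on diet dosed at 50 μg/cm^2. Compound was applied in acetone-water 90:10 and dried; trays kept vented at 25° C under 14:10 photoperiod.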

Structure (SMILES) | pest or weed control at 50 µg/cm2 [1] | pest or weed control at 50 µg/cm2 [2]
Cc1cc(NC(=O)[C@H]2[C@H](c3ccc(Cl)c(Cl)c3)C2(Cl)Cl)cc(C(=O)Nc2cc(N)c(F)cc2F)c1Cl [F1470, N-(5-Amino-2,4-difluorophenyl)-2-chloro-5-((1R,3R)-2,2-dichloro-3-(3,4-dichlorophenyl)cyclopropane-1-carboxamido)-3-methylbenzamide] | 50 to 100% | 50 to 100%
O=C(Nc1ccc(F)c(NC(=O)C(F)(F)c2ccccc2)c1F)c1cc(NC(=O)[C@H]2[C@H](c3ccc(Cl)c(Cl)c3)C2(Cl)Cl)ccc1Cl [F1471, 2-Chloro-5-((1R,3R)-2,2-dichloro-3-(3,4-dichlorophenyl)cyclopropane-1-carboxamido)-N-(3-(2,2-difluoro-2-phenylacetamido)-2,4-difluorophenyl)benzamide] | 50 to 100% | 50 to 100%
CCC(=O)Nc1c(F)ccc(NC(=O)c2cc(NC(=O)[C@H]3[C@H](c4ccc(Cl)c(Cl)c4)C3(Cl)Cl)ccc2Cl)c1F [F1472, 2-Chloro-5-((1R,3R)-2,2-dichloro-3-(3,4-dichlorophenyl)cyclopropane-1-carboxamido)-N-(2,4-difluoro-3-propionamidophenyl)benzamide] | 50 to 100% | 50 to 100%
CCOC(=O)Nc1c(F)ccc(NC(=O)c2cc(NC(=O)[C@H]3[C@H](c4ccc(Cl)c(Cl)c4)C3(Cl)Cl)ccc2Cl)c1F [F1476, Ethyl (3-(2-chloro-5-((1R,3R)-2,2-dichloro-3-(3,4-dichlorophenyl)cyclopropane-1-carboxamido)benzamido)-2,6-difluorophenyl)carbamate] | 50 to 100% | 50 to 100%
Cc1cc(NC(=O)[C@H]2[C@H](c3cc(Cl)c(Cl)c(Cl)c3)C2(Cl)Cl)cc(C(=O)Nc2cc(N)c(F)cc2F)c1Cl [F1477, N-(5-Amino-2,4-difluorophenyl)-2-chloro-5-((1R,3R)-2,2-dichloro-3-(3,4,5-trichlorophenyl)cyclopropane-1-carboxamido)-3-methylbenzamide] | 50 to 100% | 50 to 100%
Cc1cc(NC(=O)[C@H]2[C@H](c3ccc(F)c(C(F)(F)F)c3)C2(Cl)Cl)cc(C(=O)Nc2cc(N)c(F)cc2F)c1Cl [F1478, N-(5-Amino-2,4-difluorophenyl)-2-chloro-5-((1R,3R)-2,2-dichloro-3-(4-fluoro-3-(trifluoromethyl)phenyl)cyclopropane-1-carboxamido)-3-methylbenzamide] | 50 to 100% | 50 to 100%
Cc1cc(NC(=O)[C@H]2[C@H](c3ccc(Cl)c(Cl)c3)C2(Cl)Cl)cc(C(=O)Nc2ccc(F)c(NC(=O)C(F)F)c2F)c1Cl [F1484, 2-Chloro-5-((1R,3R)-2,2-dichloro-3-(3,4-dichlorophenyl)cyclopropane-1-carboxamido)-N-(3-(2,2-difluoroacetamido)-2,4-difluorophenyl)-3-methylbenzamide] | 50 to 100% | 50 to 100%
Cc1cc(NC(=O)[C@H]2[C@H](c3ccc(Cl)c(Cl)c3)C2(Cl)Cl)cc(C(=O)Nc2ccc(F)c(NC(=O)C(F)(F)F)c2F)c1Cl [F1485, 2-Chloro-5-((1R,3R)-2,2-dichloro-3-(3,4-dichlorophenyl)cyclopropane-1-carboxamido)-N-(2,4-difluoro-3-(2,2,2-trifluoroacetamido)phenyl)-3-methylbenzamide] | 50 to 100% | 50 to 100%
Cc1cc(NC(=O)[C@H]2[C@H](c3cc(Cl)c(Cl)c(Cl)c3)C2(Cl)Cl)cc(C(=O)Nc2ccc(F)c(NC(=O)C(F)F)c2F)c1Cl [F1486, 2-Chloro-5-((1R,3R)-2,2-dichloro-3-(3,4,5-trichlorophenyl)cyclopropane-1-carboxamido)-N-(3-(2,2-difluoroacetamido)-2,4-difluorophenyl)-3-methylbenzamide] | 50 to 100% | 50 to 100%
Cc1cc(NC(=O)[C@H]2[C@H](c3cc(Cl)c(Cl)c(Cl)c3)C2(Cl)Cl)cc(C(=O)Nc2ccc(F)c(NC(=O)C(F)(F)F)c2F)c1Cl [F1487, 2-Chloro-5-((1R,3R)-2,2-dichloro-3-(3,4,5-trichlorophenyl)cyclopropane-1-carboxamido)-N-(2,4-difluoro-3-(2,2,2-trifluoroacetamido)phenyl)-3-methylbenzamide] | 50 to 100% | 50 to 100%
Nc1cc(NC(=O)c2cc(NC(=O)[C@H]3[C@H](c4ccc(Cl)c(Cl)c4)C3(Cl)Cl)ccc2F)c(F)cc1F [F1490, N-(5-Amino-2,4-difluorophenyl)-5-((1R,3R)-2,2-dichloro-3-(3,4-dichlorophenyl)cyclopropane-1-carboxamido)-2-fluorobenzamide] | 50 to 100% | 50 to 100%
O=C(Nc1ccc(F)c(NC(=O)C(F)F)c1F)c1cc(NC(=O)[C@H]2[C@H](c3ccc(Cl)c(Cl)c3)C2(Cl)Cl)ccc1F [F1491, 5-((1R,3R)-2,2-Dichloro-3-(3,4-dichlorophenyl)cyclopropane-1-carboxamido)-N-(3-(2,2-difluoroacetamido)-2,4-difluorophenyl)-2-fluorobenzamide] | 50 to 100% | 50 to 100%
CC(=O)Nc1c(F)ccc(NC(=O)c2cc(NC(=O)[C@H]3[C@H](c4ccc(Cl)c(Cl)c4)C3(Cl)Cl)ccc2F)c1F [F1493, N-(3-Acetamido-2,4-difluorophenyl)-5-((1R,3R)-2,2-dichloro-3-(3,4-dichlorophenyl)cyclopropane-1-carboxamido)-2-fluorobenzamide] | 50 to 100% | 50 to 100%
Cc1cc(NC(=O)[C@H]2[C@H](c3ccc(F)c(C(F)(F)F)c3)C2(Cl)Cl)cc(C(=O)Nc2ccc(F)c(NC(=O)C(F)F)c2F)c1Cl [F1494, 2-Chloro-5-((1R,3R)-2,2-dichloro-3-(4-fluoro-3-(trifluoromethyl)phenyl)cyclopropane-1-carboxamido)-N-(3-(2,2-difluoroacetamido)-2,4-difluorophenyl)-3-methylbenzamide] | 50 to 100% | 50 to 100%
Cc1cc(NC(=O)[C@H]2[C@H](c3ccc(F)c(C(F)(F)F)c3)C2(Cl)Cl)cc(C(=O)Nc2ccc(F)c(NC(=O)C(F)(F)F)c2F)c1Cl [F1495, 2-Chloro-5-((1R,3R)-2,2-dichloro-3-(4-fluoro-3-(trifluoromethyl)phenyl)cyclopropane-1-carboxamido)-N-(2,4-difluoro-3-(2,2,2-trifluoroacetamido)phenyl)-3-methylbenzamide] | 50 to 100% | 50 to 100%
Cc1cc(NC(=O)[C@H]2[C@H](c3ccc(Cl)c(Cl)c3)C2(Cl)Cl)cc(C(=O)Nc2cc(NC(=O)C(F)F)c(F)cc2F)c1Cl [F1496, 2-Chloro-5-((1R,3R)-2,2-dichloro-3-(3,4-dichlorophenyl)cyclopropane-1-carboxamido)-N-(5-(2,2-difluoroacetamido)-2,4-difluorophenyl)-3-methylbenzamide] | 50 to 100% | 50 to 100%
Cc1cc(NC(=O)[C@H]2[C@H](c3ccc(Cl)c(Cl)c3)C2(Cl)Cl)cc(C(=O)Nc2cc(NC(=O)C(F)(F)F)c(F)cc2F)c1Cl [F1497, 2-Chloro-5-((1R,3R)-2,2-dichloro-3-(3,4-dichlorophenyl)cyclopropane-1-carboxamido)-N-(2,4-difluoro-5-(2,2,2-trifluoroacetamido)phenyl)-3-methylbenzamide] | 50 to 100% | 50 to 100%
Cc1cc(NC(=O)[C@H]2[C@H](c3cc(Cl)c(Cl)c(Cl)c3)C2(Cl)Cl)cc(C(=O)Nc2cc(NC(=O)C(F)F)c(F)cc2F)c1Cl [F1498, 2-Chloro-5-((1R,3R)-2,2-dichloro-3-(3,4,5-trichlorophenyl)cyclopropane-1-carboxamido)-N-(5-(2,2-difluoroacetamido)-2,4-difluorophenyl)-3-methylbenzamide] | 50 to 100% | 50 to 100%
Cc1cc(NC(=O)[C@H]2[C@H](c3cc(Cl)c(Cl)c(Cl)c3)C2(Cl)Cl)cc(C(=O)Nc2cc(NC(=O)C(F)(F)F)c(F)cc2F)c1Cl [F1499, 2-Chloro-5-((1R,3R)-2,2-dichloro-3-(3,4,5-trichlorophenyl)cyclopropane-1-carboxamido)-N-(2,4-difluoro-5-(2,2,2-trifluoroacetamido)phenyl)-3-methylbenzamide] | 50 to 100% | 50 to 100%
Cc1cc(NC(=O)[C@H]2[C@H](c3ccc(F)c(C(F)(F)F)c3)C2(Cl)Cl)cc(C(=O)Nc2cc(NC(=O)C(F)F)c(F)cc2F)c1Cl [F1500, 2-Chloro-5-((1R,3R)-2,2-dichloro-3-(4-fluoro-3-(trifluoromethyl)phenyl)cyclopropane-1-carboxamido)-N-(5-(2,2-difluoroacetamido)-2,4-difluorophenyl)-3-methylbenzamide] | 50 to 100% | 50 to 100%
Cc1cc(NC(=O)[C@H]2[C@H](c3ccc(F)c(C(F)(F)F)c3)C2(Cl)Cl)cc(C(=O)Nc2cc(NC(=O)C(F)(F)F)c(F)cc2F)c1Cl [F1501, 2-Chloro-5-((1R,3R)-2,2-dichloro-3-(4-fluoro-3-(trifluoromethyl)phenyl)cyclopropane-1-carboxamido)-N-(2,4-difluoro-5-(2,2,2-trifluoroacetamido)phenyl)-3-methylbenzamide] | 50 to 100% | 50 to 100%
CC(=O)Nc1c(F)ccc(NC(=O)c2cc(NC(=O)[C@H]3[C@H](c4cc(Cl)cc(Cl)c4)C3(Cl)Cl)cc(F)c2Cl)c1F [F1502, N-(3-Acetamido-2,4-difluorophenyl)-2-chloro-5-((1R,3R)-2,2-dichloro-3-(3,5-dichlorophenyl)cyclopropane-1-carboxamido)-3-fluorobenzamide] | 50 to 100% | 50 to 100%
